Source: patent publication US20080318892A1, “METHODS AND FORMULATIONS FOR PROTECTING CELLS, AND FOR TREATING DISEASES AND CONDITIONS BY OPTIMIZING THE INTRACELLULAR CONCENTRATION OF NAD” (priority 2007, published 2008)

System: SIRT1
Assay: SIRT1 deacetylase activity in live SMCs (Fluor de Lys-SIRT1 substrate, TSA-independent)
Format: cell-based, human
Conditions: SMCs overexpressing Nampt; p=0.03, n=4
Method: In vivo assessment of SIRT1 deacetylase activity. Cell-based assessment of SIRT1-like enzymatic activity was performed using the Fluor de lys-SIRT1 substrate (Biomol, Plymouth Meeting, Pa.), as previously described (de Boer, 2006). SMCs in phenol-red free M199 with 5% FBS were incubated for 2 h with 5 μM TSA followed by addition of the fluorogenic substrate for 4 h. Signal was quantified by spectrofluorimetry (Wallac, Wellesley, Mass.) and normalized to total protein content.
Assessment of SIRT1 Deacetylase Activity. SIRT1 deacetylase activity was quantified in live cells as previously reported (de Boer et al, 2006). SMCs cultured in phenol red-free M199 were incubated without serum for 2 h with 1 μM trichostatin A (Sigma, St. Louis, Mo., USA) followed by addition of 25 μM Fluor-de-Lys-SIRT1 fluorogenic substrate (Biomol, Plymouth Meeting, Pa., USA) for 4 h. Media containing fluorogenic substrate and reaction product was incubated with an equal volume of SIRT1 assay buffer containing 2 mM nicotinamide and developer (Biomol, Plymouth Meeting, Pa., USA). Signal was quantified by spectrofluorometry (Wallac VICTOR-1420, PerkinElmer Life Science, Waltham, Mass., USA) and normalized to total protein content

Substance: PBEF: 52-55 kD protein, rate-limiting enzyme for NAD+ biosynthesis from nicotinamide; tested by retroviral cDNA overexpression in cells
- increase in SIRT1 activity: 86±4%
